In publication PMC10861593, “Kisspeptin-10 binding to Gpr54 in osteoclasts prevents bone loss by activating Dusp18-mediated dephosphorylation of Src” (Nature Communications, 2024):

Assays:
[1] = system: Gpr54, Src and Dusp18 co-localization; assay: IF staining / TIRF microscopy co-localization in pre-osteoclasts; assay type: cell-based, mouse; settings: 10 nM Kp-10 20 min
Experimental: For endogenous IF staining, BMMs were seeded on confocal dishes and induced by 50 ng/ml RANKL and 10 ng/ml M-CSF for 2 days, and subsequently incubated with or without Kp-10 for 20 min. Cells were fixed in 10% TCA and incubated with anti-Gpr54 (Cell Signaling Technologies, 13776, 1:100), anti-Dusp18 (Santa Cruz., sc-376923, 1:100), or anti-Src (Cell Signaling Technologies, 2110, 1:400) or anti-Src (Cell Signaling Technologies, 2109, 1:400) overnight. IF staining of membrane colocation of Gpr54 with Src or Dusp18, and Src with Dusp18 were detected by Alexa Fluor™ 594 Tyramide SuperBoost™ Kit (Invitrogen, B40925) and Alexa Fluor™ 488 Tyramide SuperBoost™ Kit (Invitrogen, B40912) according to manufacturer’s instructions. The images were obtained by total internal reflection fluorescence (TIRF) microscopy (Ti2-E + H-TIRF, Nikon).

[2] = system: phosphatases co-immunoprecipitated with Gpr54; assay: mass spectrometry of anti-Gpr54 IP; assay type: cell-based, mouse; settings: RAW264.7 cells, Kp-10 20 min
Experimental: For mass spectrometry (MS) analysis, anti-Gpr54 IP was performed with the whole-cell lysates derived from two 10-cm dishes of RAW264.7 cells with or without Kp-10 treatment for 20 min. The protein complexes after Co-IP were extensively washed with PBS, followed by on-bead digestion. Mass spectra were acquired on a Q-Exactive mass spectrometer (Thermo Scientific, Bremen, Germany). The raw mass spectrometry data were searched against the mouse IPI databases (version 3.86, released on June 28, 2012) using the Proteome Discoverer software suite (Thermo Scientific, San Jose, USA) utilizing a label-free quantification feature. The mass spectrometry proteomics data have been deposited to the ProteomeXchange Consortium via the PRIDE[52] partner repository with the dataset identifier PXD038433.

[3] = system: osteoblast differentiation; settings: in vitro, KP-10 5 and 50 μM; ref 46 (Son et al.); cited from earlier work
Description: Typically, GPCR activation with increasing of ligand concentration generates different signalings and phenotypes. […] Furthermore, we foun ...

OVX mice = assay: OVX-induced bone loss model (and sham-operated mice); assay type: in vivo, mouse; settings: in vivo, OVX-induced bone loss model
Description: Fig. 7 Kp-10 ameliorated OVX-induced bone loss. a, c Representative micro-CT images of femoral trabecular bone (a) and cortical bone (c). Female C57 mice treated with vehicle (Sham) or 50 nmol/kg (DSS)*6-Kp-10, ovariectomized mice (OVX) treated with vehicle or 50nmol/kg (DSS)*6-Kp-10 twice one week by intraperitoneal injection (n = 6 per group). Scale bar, 500 µm. b, d Parameter analysis of femurs from the mice above. BMD bone mineral density, BV/TV bone volume as a fraction of total bone volume, Tb.Th trabecular thickness, Tb.N trabecular number, Tb.Sp trabecular separation. e Representative TRAP staining images of femurs from Fig. 7a. f Histomorphometry analysis of the femurs from Fig. 7a. Oc.S/BS osteoclast surface per bone surface, N.Oc/B.Pm osteoclast bone surface density, ES/BS eroded surface per bone surface. Data represent means ± SEM. P values were determined by one-way ANOVA analysis (b, d, f). Representative results were obtained from at least three independent experiments. Source data are provided as a Source Data file.
3D micro-CT analyses were performed as previously described. We scanned the femur using in vitro X-ray microtomography (Skyscan 1272, Bruker micro CT) at a pixel size of 9 µm, and analyzed the results according to the manufacturer’s instructions. Region-of-interest (ROI) was defined from 10 to 110 image slices, where the growth plate slice was defined as 0 mm. The contrast was defined from 68–255; 3D analysis, BMD, and 3D models were analyzed using CTAn software (Bruker micro CT). 3D models were adjusted in CT Vox software (Bruker micro CT).
Bone tissue was removed of excess tissues and fixed with 4% formalin, decalcified with 0.5 M EDTA for 10–14 days, embedded with paraffin, sectioned, and stained using the TRAP staining kit (Sigma-Aldrich, 387A-1KT). The third lumbar spine vertebrae (L3) were fixed with 4% formalin, sectioned, and subjected to Von Kossa staining as described previously[60],[61]. For double calcian labeling assay, 4−5 week-old mice were administrated calcian (30 μg/mL) through intraperitoneal injection for the first time and the second time after 10 days. The third lumbar spine vertebrae (L3) were fixed with 4% formalin, sectioned, and subjected to Goldner’s Masson trichrome staining, or acquisition of fluorescence images. Histomorphometric measurements were made using the OsteoMeasure Analysis System (Osteometrics, Atlanta, GA, USA) according to standard criteria.
For animal studies in vivo, mice were randomized for weight. For the OVX-induced bone loss model, 2-month-old female C57BL/6 mice were sham-operated (sham) or ovariectomized (OVX) and randomly divided into indicated groups. Vehicle, Kp-10 or (DSS)*6-Kp-10 was injected into the tail vein twice per week. After two months of treatment, the femurs and the L3 lumbrae were isolated for micro-CT or histomorphometric analysis. 3D micro-CT analyses were performed according to a standard protocol. BMD and bone volume were analyzed by CT-analysis software (CTAn, Bruker micro CT, Kontich, Belgium) and images were reconstituted by CT-volume software (CTvol, skyscan, CTAn, Bruker micro CT, Kontich, Belgium).
Supplementary Fig. 16 a Representative image of Von Kossa staining of sham-operated female C57 mice treated with vehicle (Sham, n=4), ovariectomized mice (OVX, n=3), and OVX mice treatment with 1 nmol/kg Kp-10 (n=6),10 nmol/kg Kp-10 (n=6),1 nmol/kg (DSS)*6-Kp-10 (n=5) or 10 nmol/kg (DSS)*6-Kp-10 (n=6) twice one week by intraperitoneal injection for two months. […]

With Kisspeptin-10 [Kp-10] the “co-localization of Dusp18 with Gpr54 in the plasma membrane” value [1] was “colocalized with Gpr54 in the plasma membrane especially after treatment of Kp-10”, the “co-localization of Dusp18 with Src in the plasma membrane” value [1] was “colocalized with Src in the plasma membrane especially after treatment with Kp-10” and the “co-localization of Src with Gpr54 on the membrane” value [1] was “co-localized on the membrane with Gpr54 especially after Kp-10 stimulation”. The “phosphatases increasing after Kp-10 stimulation” value [2] was “three increasing phosphatases including DUSP18, PTPN6 and PPP1CA were identified”, the “osteoblast differentiation at 5 and 50 μM” value [3] was “stimulated osteoblast differentiation in vitro” and the “bone loss / bone protection in vivo (summary statement)” value (OVX mice) was “abrogated bone loss by suppressing osteoclast activity in vivo”.
